This passage reports IC50 results from US9278950B2, “Bicyclic aromatic carboxamide compounds useful as Pim kinase inhibitors” (Incyte Corporation, priority 2013, dated 2016).

Holding throughout (assay type): biochemical
In assay [1] the target is T1, Pim2 (Homo sapiens, UniProt Q9P1W9).
T1 construct: purchased Invitrogen PV3649
In words: Pim-2 kinase assay (Pim enzyme assays, Example A). Conditions: 1 mM ATP; read-out: Pim2 IC50. In outline: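 TR-FRET assay with 1 nM enzyme, 0.05 μM fluorescein-CREBtide and 1 mM ATP in Tris pH 7.5 buffer with MgCl2, DTT, BSA and Tween-20, run 2 h at 25° C. Stopped with EDTA and Tb-labelled anti-CREB pSer133 antibody, then read after 30 min at room temperature.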

Assay [2] addresses T1, Pim2. As to the kind of experiment: Pim2 assay analogous to Example A performed under Km ATP conditions. Conditions: Km ATP conditions rather than 1 mM ATP. On the procedure: Pim-2 kinase assay—20 μL reactions were run in white 384 well polystyrene plates dotted with 0.8 μL compound/DMSO in the assay buffer (50 mM Tris, pH 7.5, 0.01% Tween-20, 5 mM mgCl2, 0.01% BSA, 5 mM DTT), containing 0.05 μM Fluorescein-labeled CREBtide peptide substrate (Invitrogen PV3508), 1 mM ATP, and 1 nM enzyme (Invitrogen PV3649) for 2 h at 25° C. Reactions were stopped by addition of 10 μL TR-FRET Dilution Buffer (Invitrogen PV3574) with 30 mM EDTA and 1.5 nM LanthaScreen Tb-CREB pSer133 antibody (Invitrogen PV3566). After 30 min. incubation at room temperature, plates were read on a PHERAstar FS plate reader (BMG Labtech).
Although the above in vitro assays are conducted at 1 mM ATP compounds can also be evaluated for potency and in vitro activity against PIM targets utilizing Km conditions, where the concentration of ATP is set to the Km value and the assay is more sensitive to PIM inhibition activity.

A further assay concerns the target T2, Pim-3 (Homo sapiens, UniProt Q86V86).
T2 construct: purchased Millipore 14-738
As to the kind of experiment: Pim-3 kinase assay (Pim enzyme assays, Example A). Conditions: 1 mM ATP; read-out: Pim3 IC50.

The next assay concerns the target T3, Pim-1 (Homo sapiens, UniProt P11309).
T3 construct: purchased Invitrogen PV3503
In words: Pim-1 kinase assay (Pim enzyme assays, Example A). Conditions: 1 mM ATP; read-out: Pim1 IC50.

T3 sequence (P11309 whole entry): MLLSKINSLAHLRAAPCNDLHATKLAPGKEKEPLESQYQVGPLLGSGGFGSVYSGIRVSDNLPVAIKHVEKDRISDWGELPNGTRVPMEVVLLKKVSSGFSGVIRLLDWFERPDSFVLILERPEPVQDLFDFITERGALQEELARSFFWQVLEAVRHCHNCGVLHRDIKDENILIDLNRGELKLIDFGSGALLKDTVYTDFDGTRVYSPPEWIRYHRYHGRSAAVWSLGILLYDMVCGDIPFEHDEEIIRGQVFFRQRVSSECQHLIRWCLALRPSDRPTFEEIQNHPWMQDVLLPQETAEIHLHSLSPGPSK
T1 sequence (Q9P1W9 whole entry): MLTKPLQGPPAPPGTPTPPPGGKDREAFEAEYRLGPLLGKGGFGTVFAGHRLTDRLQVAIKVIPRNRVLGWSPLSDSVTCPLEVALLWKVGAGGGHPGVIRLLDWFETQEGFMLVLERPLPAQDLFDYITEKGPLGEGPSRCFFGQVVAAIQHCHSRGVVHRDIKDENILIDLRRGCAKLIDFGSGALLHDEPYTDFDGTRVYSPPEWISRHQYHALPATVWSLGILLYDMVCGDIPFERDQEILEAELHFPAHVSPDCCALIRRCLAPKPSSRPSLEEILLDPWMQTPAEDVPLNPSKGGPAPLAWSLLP

As usually defined, the IC50 is the point on the concentration scale where inhibition reaches its midpoint. For the compound `CCc1ccc2cc(N)c(C(=O)Nc3cnc4c(c3N3CCC[C@H](N)C3)CCC4O)nc2c1` (single isomer, unassigned) [22 isomer 1], the IC50 is more than 2 µM at Pim2 [1], 0.1 to 1 µM against Pim2 [2], more than 0.04 µM at Pim-3 and more than 0.04 µM at Pim-1.

Regarding `NC(=O)c1ccccc1-c1ccc2cc(N)c(C(=O)Nc3cnccc3N3CCC[C@H](N)C3)nc2c1` [Example 6, 3-Amino-7-[2-(aminocarbonyl)phenyl]-N-{4-[(3S)-3-aminopiperidin-1-yl]pyridin-3-yl}quinoline-2-carboxamide], the IC50 on Pim2 [1] was more than 2 µM; on Pim2 [2], less than 0.1 µM; at Pim-3, more than 0.04 µM; at Pim-1, more than 0.04 µM.

For `C[C@H]1CN(c2ccncc2NC(=O)c2nc3cc(N4CCN(C)CC4)ccc3cc2N)C[C@@H](N)[C@H]1n1ccnn1` [Example 54, 3-Amino-N-{4-[(3R,4S,5S)-3-amino-5-methyl-4-(1H-1,2,3-triazol-1-yl)piperidin-1-yl]pyridin-3-yl}-7-(4-methylpiperazin-1-yl)quinoline-2-carboxamide], the IC50 at Pim2 [1] is more than 2 µM; at Pim-3, not above 0.1 µM; on Pim-1 it was not above 0.1 µM.

As for `C[C@H]1CN(c2ccncc2NC(=O)c2nc3cc(N4CCOCC4)ccc3cc2N)C[C@@H](N)[C@H]1n1ccnn1` [Example 55, 3-Amino-N-{4-[(3R,4S,5S)-3-amino-5-methyl-4-(1H-1,2,3-triazol-1-yl)piperidin-1-yl]pyridin-3-yl}-7-morpholin-4-ylquinoline-2-carboxamide], the half-maximal inhibitory concentration (IC50) was more than 2 µM on Pim2 [1], not above 0.1 µM at Pim-3 and not above 0.1 µM on Pim-1.

Turning to `C[C@H]1CN(c2ccncc2NC(=O)c2nc3cc(C4CCN(C)CC4)ccc3cc2N)C[C@@H](N)[C@H]1n1ccnn1` [Example 56, 3-Amino-N-{4-[(3R,4S,5S)-3-amino-5-methyl-4-(1H-1,2,3-triazol-1-yl)piperidin-1-yl]pyridin-3-yl}-7-(1-methylpiperidin-4-yl)quinoline-2-carboxamide], the figures for the IC50 at Pim2 [1], on Pim-3 and on Pim-1 were 1 to 10 µM, not above 0.1 µM and not above 0.1 µM, respectively.

Consider `CCc1ccc2cc(N)c(C(=O)Nc3cnccc3N3C[C@@H](N)[C@@H](n4ccnn4)[C@@H](C)C3)nc2c1` [Example 57, 3-Amino-N-{4-[(3R,4S,5S)-3-amino-5-methyl-4-(1H-1,2,3-triazol-1-yl)piperidin-1-yl]pyridin-3-yl}-7-ethylquinoline-2-carboxamide], for which the IC50 at Pim2 [1] is 0.1 to 1 µM; at Pim-3, not above 0.1 µM; at Pim-1, not above 0.1 µM.

`CCc1ccc2cc(N)c(C(=O)Nc3cnccc3N3C[C@@H](N)[C@@H](NC(=O)OC)[C@@H](C)C3)nc2c1` [Example 58, Methyl [(3R,4S,5S)-3-amino-1-(3-{[(3-amino-7-ethylquinolin-2-yl)carbonyl]amino}pyridin-4-yl)-5-methylpiperidin-4-yl]carbamate]: the IC50 on Pim2 [1] was 0.1 to 1 µM; on Pim-3 it was not above 0.1 µM; at Pim-1, not above 0.1 µM.

For `COC(=O)N[C@@H]1[C@H](N)CN(c2ccncc2NC(=O)c2nc3cc(N4CCOCC4)ccc3cc2N)C[C@@H]1C` [Example 59, Methyl [(3R,4S,5S)-3-amino-1-(3-{[(3-amino-7-morpholin-4-ylquinolin-2-yl)carbonyl]amino}pyridin-4-yl)-5-methylpiperidin-4-yl]carbamate], the IC50 at Pim2 [1] was 1 to 10 µM; at Pim-3 it was not above 0.1 µM; at Pim-1, not above 0.1 µM.

For `COC(=O)N[C@@H]1[C@H](N)CN(c2ccncc2NC(=O)c2nc3cc(N4CCN(C)CC4)ccc3cc2N)C[C@@H]1C` [Example 60, Methyl {(3R,4S,5S)-3-amino-1-[3-({[3-amino-7-(4-methylpiperazin-1-yl)quinolin-2-yl]carbonyl}amino)pyridin-4-yl]-5-methylpiperidin-4-yl}carbamate], the IC50 at Pim2 [1] was 1 to 10 µM; at Pim-3 it was not above 0.1 µM; on Pim-1, not above 0.1 µM.

As to `COC(=O)N[C@@H]1[C@H](N)CN(c2ccncc2NC(=O)c2nc3cc(C4CCOCC4)ccc3cc2N)C[C@@H]1C` [Example 61, Methyl {(3R,4S,5S)-3-amino-1-[3-({[3-amino-7-(tetrahydro-2H-pyran-4-yl)quinolin-2-yl]carbonyl}amino)pyridin-4-yl]-5-methylpiperidin-4-yl}carbamate], the IC50 is 0.1 to 1 µM at Pim2 [1], not above 0.1 µM on Pim-3 and not above 0.1 µM on Pim-1.

`COC(=O)N[C@@H]1[C@H](N)CN(c2ccncc2NC(=O)c2nc3cc(C4CCN(C)CC4)ccc3cc2N)C[C@@H]1C` [Example 62, Methyl {(3R,4S,5S)-3-amino-1-[3-({[3-amino-7-(1-methylpiperidin-4-yl)quinolin-2-yl]carbonyl}amino)pyridin-4-yl]-5-methylpiperidin-4-yl}carbamate]: the IC50 on Pim2 [1] was 1 to 10 µM; at Pim-3, not above 0.1 µM; at Pim-1, not above 0.1 µM.
